Publication PMC5564600 (Oncotarget, 2017)

Tests used:
Experiment in all cases: biochemical
Format in all cases: binding
panel of 442 kinases [1] = target: T1, panel of 442 kinases (Homo sapiens, UniProt P43403); conditions: kinase ZAP70; for remaining activity at 1 µM: read-out: ZAP70 (% of control at 1 µM)
T1 construct: purchased Ambit Biosciences (scanMAXX KINOMEscan)
T1 sequence (P43403 1-619): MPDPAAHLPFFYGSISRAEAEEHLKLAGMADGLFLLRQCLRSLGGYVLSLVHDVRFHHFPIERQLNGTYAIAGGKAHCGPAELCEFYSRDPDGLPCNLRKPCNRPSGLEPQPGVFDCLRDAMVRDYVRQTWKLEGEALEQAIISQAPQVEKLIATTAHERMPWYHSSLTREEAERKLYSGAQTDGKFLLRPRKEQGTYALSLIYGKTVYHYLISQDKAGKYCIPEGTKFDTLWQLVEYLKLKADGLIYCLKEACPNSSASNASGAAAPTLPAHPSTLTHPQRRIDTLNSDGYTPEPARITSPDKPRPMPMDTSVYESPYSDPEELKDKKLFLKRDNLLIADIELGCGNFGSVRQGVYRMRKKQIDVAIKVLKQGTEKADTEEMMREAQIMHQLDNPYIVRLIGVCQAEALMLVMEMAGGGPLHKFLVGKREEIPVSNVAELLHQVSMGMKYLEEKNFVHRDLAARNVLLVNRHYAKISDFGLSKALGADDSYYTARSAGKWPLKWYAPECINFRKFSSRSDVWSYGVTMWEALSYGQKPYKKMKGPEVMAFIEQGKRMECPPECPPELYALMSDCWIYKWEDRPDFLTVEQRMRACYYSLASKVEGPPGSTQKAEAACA

panel of 442 kinases [2] = target: T2, panel of 442 kinases (Homo sapiens, UniProt P36507); conditions: kinase MEK2; for remaining activity at 1 µM: read-out: % of control at 1 µM
T2 construct: purchased Ambit Biosciences (scanMAXX KINOMEscan)

panel of 442 kinases [3] = target: T3, panel of 442 kinases (Homo sapiens, UniProt O14976); conditions: kinase GAK; for remaining activity at 1 µM: read-out: % of control at 1 µM
T3 construct: purchased Ambit Biosciences (scanMAXX KINOMEscan)
T3 sequence (O14976 1-1311): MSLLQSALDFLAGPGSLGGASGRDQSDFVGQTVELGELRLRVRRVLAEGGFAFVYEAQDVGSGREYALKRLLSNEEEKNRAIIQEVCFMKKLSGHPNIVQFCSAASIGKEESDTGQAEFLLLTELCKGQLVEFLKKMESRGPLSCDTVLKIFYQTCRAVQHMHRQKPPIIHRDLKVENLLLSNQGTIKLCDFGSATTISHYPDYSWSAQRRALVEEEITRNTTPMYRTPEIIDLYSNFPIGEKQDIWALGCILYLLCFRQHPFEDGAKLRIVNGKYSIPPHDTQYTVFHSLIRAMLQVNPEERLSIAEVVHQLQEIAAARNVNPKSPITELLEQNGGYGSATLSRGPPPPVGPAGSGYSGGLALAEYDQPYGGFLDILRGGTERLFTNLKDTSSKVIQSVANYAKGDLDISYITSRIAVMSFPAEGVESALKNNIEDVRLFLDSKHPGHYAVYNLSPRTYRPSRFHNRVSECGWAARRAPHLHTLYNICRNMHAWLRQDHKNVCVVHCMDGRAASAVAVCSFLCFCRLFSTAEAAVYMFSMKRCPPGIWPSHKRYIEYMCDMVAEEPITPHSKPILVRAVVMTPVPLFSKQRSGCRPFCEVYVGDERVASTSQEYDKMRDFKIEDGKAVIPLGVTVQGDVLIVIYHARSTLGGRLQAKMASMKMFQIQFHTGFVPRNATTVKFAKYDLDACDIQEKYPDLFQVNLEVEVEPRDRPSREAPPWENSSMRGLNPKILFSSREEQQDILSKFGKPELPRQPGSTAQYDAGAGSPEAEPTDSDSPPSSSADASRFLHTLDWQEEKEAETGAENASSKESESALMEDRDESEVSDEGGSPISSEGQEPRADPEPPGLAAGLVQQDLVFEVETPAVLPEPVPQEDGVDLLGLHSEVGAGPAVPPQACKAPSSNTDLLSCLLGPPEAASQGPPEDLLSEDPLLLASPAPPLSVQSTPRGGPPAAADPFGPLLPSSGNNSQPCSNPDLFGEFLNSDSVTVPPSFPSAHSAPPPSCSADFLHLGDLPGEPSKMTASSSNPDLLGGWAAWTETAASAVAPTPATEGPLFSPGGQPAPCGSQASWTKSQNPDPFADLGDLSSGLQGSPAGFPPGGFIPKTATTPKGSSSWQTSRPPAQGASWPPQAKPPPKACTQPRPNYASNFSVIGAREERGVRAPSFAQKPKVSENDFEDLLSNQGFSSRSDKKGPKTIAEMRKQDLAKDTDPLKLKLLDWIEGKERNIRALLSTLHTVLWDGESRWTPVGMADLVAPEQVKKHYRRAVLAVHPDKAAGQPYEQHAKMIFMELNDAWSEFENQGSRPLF

panel of 442 kinases [4] = target: T4, panel of 442 kinases (Homo sapiens, UniProt Q07002); conditions: kinase PCTK3; for remaining activity at 1 µM: read-out: % of control at 1 µM
T4 construct: purchased Ambit Biosciences (scanMAXX KINOMEscan)

panel of 442 kinases [5] = target: T5, panel of 442 kinases (Homo sapiens, UniProt P22607); conditions: FGFR3; for remaining activity at 1 µM: read-out: % of control at 1 µM
T5 construct: purchased Ambit Biosciences (scanMAXX KINOMEscan)

[6] = 10 µM, read-out: % of control at 10 µM

T5 sequence (P22607 23-806): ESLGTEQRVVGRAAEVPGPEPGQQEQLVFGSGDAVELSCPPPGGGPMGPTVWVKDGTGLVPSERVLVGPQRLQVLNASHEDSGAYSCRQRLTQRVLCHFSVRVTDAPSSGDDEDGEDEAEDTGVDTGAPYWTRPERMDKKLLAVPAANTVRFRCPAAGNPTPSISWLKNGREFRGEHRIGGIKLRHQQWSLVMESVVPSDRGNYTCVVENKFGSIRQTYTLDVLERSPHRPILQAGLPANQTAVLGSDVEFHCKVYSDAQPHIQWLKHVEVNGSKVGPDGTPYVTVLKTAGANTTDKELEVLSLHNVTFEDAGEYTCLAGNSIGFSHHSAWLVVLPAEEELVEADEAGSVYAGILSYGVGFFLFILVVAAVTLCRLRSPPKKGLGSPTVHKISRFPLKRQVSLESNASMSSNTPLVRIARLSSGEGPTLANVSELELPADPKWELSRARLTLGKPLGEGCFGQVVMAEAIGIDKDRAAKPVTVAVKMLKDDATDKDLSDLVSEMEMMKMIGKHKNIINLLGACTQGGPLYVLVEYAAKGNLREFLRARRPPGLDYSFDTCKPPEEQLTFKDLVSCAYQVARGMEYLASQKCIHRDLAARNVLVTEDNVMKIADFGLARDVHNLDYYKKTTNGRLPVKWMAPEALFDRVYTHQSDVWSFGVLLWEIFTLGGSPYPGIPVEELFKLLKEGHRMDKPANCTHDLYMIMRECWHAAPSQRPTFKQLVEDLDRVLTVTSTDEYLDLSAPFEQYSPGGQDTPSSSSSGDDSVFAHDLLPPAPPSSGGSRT
T4 sequence (Q07002 whole entry): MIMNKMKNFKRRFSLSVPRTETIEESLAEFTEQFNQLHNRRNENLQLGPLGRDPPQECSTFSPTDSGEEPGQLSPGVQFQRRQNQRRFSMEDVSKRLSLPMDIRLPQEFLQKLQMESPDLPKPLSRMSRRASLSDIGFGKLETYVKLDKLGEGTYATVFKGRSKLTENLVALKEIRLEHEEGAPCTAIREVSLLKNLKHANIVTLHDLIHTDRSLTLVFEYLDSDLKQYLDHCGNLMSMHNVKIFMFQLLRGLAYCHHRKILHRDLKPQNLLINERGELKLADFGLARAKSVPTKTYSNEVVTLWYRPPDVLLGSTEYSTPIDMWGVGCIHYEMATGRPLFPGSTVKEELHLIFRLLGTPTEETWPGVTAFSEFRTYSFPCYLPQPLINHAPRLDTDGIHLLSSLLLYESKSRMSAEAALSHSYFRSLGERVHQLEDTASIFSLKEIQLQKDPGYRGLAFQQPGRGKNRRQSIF
T2 sequence (P36507 whole entry): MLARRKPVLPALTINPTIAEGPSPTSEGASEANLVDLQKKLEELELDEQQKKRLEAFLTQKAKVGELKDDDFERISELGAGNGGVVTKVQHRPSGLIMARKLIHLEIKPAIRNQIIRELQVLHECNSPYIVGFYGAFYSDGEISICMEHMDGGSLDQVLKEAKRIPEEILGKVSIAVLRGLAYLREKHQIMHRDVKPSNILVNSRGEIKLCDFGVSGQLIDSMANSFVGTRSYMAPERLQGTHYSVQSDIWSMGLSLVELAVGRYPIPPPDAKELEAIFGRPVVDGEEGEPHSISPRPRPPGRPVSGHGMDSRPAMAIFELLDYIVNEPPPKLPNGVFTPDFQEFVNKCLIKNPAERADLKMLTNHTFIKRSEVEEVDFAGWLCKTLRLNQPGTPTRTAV

SMILES | remaining activity at 1 µM (panel of 442 kinases [1]) [%] | remaining activity at 10 µM (panel of 442 kinases [1]; 10 µM, read-out: ZAP70 (% of control at 10 µM)) [%] | remaining activity at 1 µM (panel of 442 kinases [2]) [%] | remaining activity at 10 µM (panel of 442 kinases [2]; [6]) [%] | remaining activity at 1 µM (panel of 442 kinases [3]) [%] | remaining activity at 10 µM (panel of 442 kinases [3]; [6]) [%] | remaining activity at 1 µM (panel of 442 kinases [4]) [%] | remaining activity at 10 µM (panel of 442 kinases [4]; [6]) [%] | remaining activity at 1 µM (panel of 442 kinases [5]) [%] | remaining activity at 10 µM (panel of 442 kinases [5]; [6]) [%]
Nc1cc(C(F)(F)F)c(-c2cc(N3CCOCC3)nc(N3CCOCC3)n2)cn1 [Buparlisib] | 100 | 100 | 100 | 100 | 100 | 100 | 100 | 87 | 100 | 100
Cn1c(=O)n(-c2ccc(C(C)(C)C#N)cc2)c2c3cc(-c4cnc5ccccc5c4)ccc3ncc21 [Dactolisib, 2-methyl-2-[4-(3-methyl-2-oxo-8-quinolin-3-yl-2,3-dihydroimidazo[4,5-c]quinolin-1-yl)-phenyl] propionitrile] | 99 | – | 73 | – | 60 | – | 94 | – | 100 | –
COc1ncc(-c2ccc3nccc(-c4ccnnc4)c3c2)cc1NS(=O)(=O)c1ccc(F)cc1F [Omipalisib] | 100 | – | 99 | – | 61 | – | 100 | – | 87 | –
FC(F)c1nc2ccccc2n1-c1nc(N2CCOCC2)nc(N2CCOCC2)n1 [ZSTK474, 2-(difluoromethyl)-1-[4,6-di(4-morpholinyl)-1,3,5-triazin-2-yl]-1H-benzimidazole] | 94 | – | 97 | – | 78 | – | 100 | – | 100 | –
